Results taken from patent US6787547B2, “Compound and method for the treatment of pain” (Astrazeneca AB, priority 1999, dated 2004).

Tests used:
[1] = system: formalin-induced nociceptive behaviors in rats; experiment: Test B: Formalin test (formalin-induced nociceptive behaviors); format: in vivo, rat
Excerpt: The Formalin test assesses the inhibitory effects of orally administered compounds on formalin-induced nociceptive behaviors in rats (D. Dubuisson, et al., Pain 4, 161-174 (1977); H. Wheeler-Aceto et al., Psychopharmacology 104, 35-44 (1991); T. J. Coderre, et al, Pain 54, 43-50 (1993)). In the test two distinctive phases of formalin-induced behaviors are detected. A first phase response, caused by acute nociception to the noxious chemical (formalin) injected into the paw, occurs between 0 to 5 minutes. A quiescent period of between 5 to 15 min post injection follows. After the quiescent period a second phase response, caused by sensitization of the central neurons in the dorsal horn, occurs after 15 minutes and lasts up to 60 minutes. Central sensitization augments a noxious afferent input causing a stronger pain barrage to be transmitted to the brain. Inhibition of the second phase response indicates a spinal mechanism of drug action.
The procedure for the formalin test is as follows: male rats are placed in a plexiglass chamber and observed for 30-45 min. to observe their baseline activity. […] The number of paw flinches (responses) during first phase (0-5 min.) and second phase (20-35 min.) are scored and recorded. Flinch response is calculated as percentage of inhibition compared with the mean score of a saline control group. […]

[2] = system: CCI rats, heat hyperalgesia; experiment: Test C: Neuropathic pain model (Chronic Constriction Injury), thermal hyperalgesia; format: in vivo, rat
Protocol: Test C: Neuropathic Pain Model (Chronic Constriction Injury)
Dose response studies are conducted with multiple groups of CCI rats dosed orally with either vehicle or the test compound three times daily with either vehicle or the test compound for 5 days. […] Efficacy is calculated as mean percentage decrease of hyperalgesia over 5 dosing days compared to vehicle-treated group. Compound potencies are expressed as the minimum effective dose (MED) in mg/Kg/day that yields a % decrease in hyperalgesia that is statistically significant, where the anti-hyperalgesic effect is determined as follows:
% of anti-hyperalgesia=(Mean of vehicle group−Mean of compound group)×100 (Mean of vehicle group)
Data analysis was performed by multiple means comparison (Dunnett's test).

[3] = biological target: T1, NMDA receptor glycine site (Homo sapiens, UniProt Q05586); experiment: Test A: Inhibition of binding of [3H]-MDL105,519, human brain membranes
T1 construct: Human brain membranes were obtained from Analytical Biological Services Inc; tissue Analytical Biological Services Inc; host or cells: human brain membranes
Protocol: (§1) Test A: Inhibition of Binding of [^3H]-MDL105,519
[^3H]MDL105,519 (72 Ci/mmol) was purchased from Amersham. Cold MDL105,519 was purchased from Sigma/RBI. Binding assays were performed substantially in accordance with the protocol of B. M. Baron et al, J. Pharmacol. Exp. Ther. 279, 62 (1996), as follows. On the day of the experiment, brain membranes were thawed at room temperature and suspended in 50 mM tris acetate buffer, pH 7.4 (“TAB”). Seventy-five micro grams per milliliter protein (by using the BioRad dye) were used for competition binding. The experiments were carried out using 96-well plates. Membranes were incubated with 20 μL of compounds of various concentrations and 1.2 nM [^3H]MDL105,519 for 30 minutes at room temperature in a total volume of 250 μL. Non specific binding was determined by using 100 μM of unlabeled MDL105,519. The unlabeled MDL105,519 and compounds were dissolved as 12.5 mM stock solutions in DMSO. Final DMSO concentration in each well was kept below 1%, which concentration was found not to alter the binding results. […] The plates were dried overnight at room temperature and bound radioactivity was measured on a Packard TopCount after the addition of 45 μL per well of the MICROSCINT O. Potency of a compound is expressed as the Ki and results were calculated using Microsoft Excel spreadsheet and GraphPad Prizm software. […]

[4] = system: NMDA induced behavior/seizure; experiment: Inhibition of NMDA induced behavior/seizure after intrathecal injection; format: in vivo; design: unit not given here
[5] = biological target: T2, NMDA receptor glycine site (Rattus norvegicus, UniProt P35439); experiment: Test A: Inhibition of binding of [3H]-MDL105,519, rat brain membranes; settings: 1.2 nM [3H]MDL105,519
T2 construct: The rat brain membranes used in the experiments were obtained from Analytical Biological Services Inc; tissue Analytical Biological Services Inc; host or cells: rat brain (cerebral cortex and hippocampus) membranes
Protocol: as §1
The rat brain membranes used in the experiments were obtained from Analytical Biological Services Inc., and were prepared substantially in accordance with the method of B. M. Baron et al., J. Pharmacol. Exp. Ther. 250, 162 (1989). Briefly, fresh brain tissue including cerebral cortex and hippocampus from male Sprague Dawley rats was homogenized in 0.32 M sucrose and centrifuged at low speed to separate cellular membranes from other cellular components. The membranes were then washed 3 times using deionized water, followed by treatment with 0.04% Triton X-100. Finally, membranes were washed six times in 50 mM Tris citrate buffer, pH 7.4, and frozen at −80° C. until use.
[^3H]MDL105,519 (72 Ci/mmol) was purchased from Amersham. Cold MDL105,519 was purchased from Sigma/RBI. Binding assays were performed substantially in accordance with the protocol of B. M. Baron et al, J. Pharmacol. Exp. Ther. 279, 62 (1996), as follows. […] Non specific binding was determined by using 100 μM of unlabeled MDL105,519. […] The plates were dried overnight at room temperature and bound radioactivity was measured on a Packard TopCount after the addition of 45 μL per well of the MICROSCINT O. Potency of a compound is expressed as the Ki and results were calculated using Microsoft Excel spreadsheet and GraphPad Prizm software.

[6] = system: panel of more than 80 non-NMDA receptors; experiment: Binding to a panel of more than 80 non-NMDA receptors
Protocol: The compound of the invention was also tested for binding to a panel of more than 80 non-NMDA receptors.

Row | Compound | Efficacy in formalin pain model, ED50 ([1]; rats, oral, dosed 3 hours prior to formalin, dose producing 50% inhibition of nociceptive response) | Minimal effective dose / dose required, CCI model of neuropathic pain [2] | % anti-hyperalgesia in CCI model of neuropathic pain, heat hyperalgesia ([2]; oral, three times daily for 5 days, at the stated effective dose) | ED50 ([1]; Rattus norvegicus, po, read-out: Efficacy in formalin pain model, ED50) [mg/kg] | Ki [3] [nM] | ED50 for inhibition of development of NMDA induced behavior/seizure [4] | MED (minimum effective dose), CCI model of neuropathic pain ([2]; oral, three times daily for 5 days) | Ki [5] [nM] | Interaction with non-NMDA receptors [6]
1 | NCC1(CC(=O)O)CCCCC1 [gabapentin, reference compound] | comparable | about 90 mg/Kg/day | about 46% | – | – | – | – | – | –
2 | Cc1ccc(-n2nc(O)c3nc4cc(Cl)ccc4c(O)c3c2=O)c(Cl)c1 [compound of the invention, 7-chloro-4-hydroxy-2-(2-chloro-4-methylphenyl)-1,2,5,10-tetrahydropyridazino[4,5-b]quinoline-1,10-dione] | – | less than 2 mg/Kg/day | – | ~100 | 50 | 110 | MED < 2 mg/Kg/d | 56 | no significant interaction
